Assay results from article PMC6792352, “Limited Chemical Structural Diversity Found to Modulate Thyroid Hormone Receptor in the Tox21 Chemical Library” (Environmental Health Perspectives, 2019).
Where a name gives a salt, the structure may show the parent alone.

Test: in vitro
Details: rat, gh3-tre-luc cells, AC50 (uM) modified / 1000

| SMILES | CC50 at 24 h |
| --- | --- |
| CCCCCCCCCCCC(=O)NCCCN(C)C [N-[3-(Dimethylamino)propyl]dodecanamide] | 18 µM |
| O=C(OCC1(COC(=O)c2cccnc2)CCCC(COC(=O)c2cccnc2)(COC(=O)c2cccnc2)C1O)c1cccnc1 [Nicomolol] | > 50 µM |
| CCCCCCC#CC(=O)OC [Methyl 2-nonynoate] | > 90 µM |
| CC(C)[C@@H]1CC[C@@H](C)C[C@H]1O [Menthol] | > 90 µM |
| COc1cc2c(cc1OC)-c1c/c(=N\c3c(C)cc(C)cc3C)n(C)c(=O)n1CC2 [Trequinsin hydrochloride] | 20.3 µM |
| CCC(=O)O[C@@H]1CC(=O)O[C@H](C)C/C=C/C=C/[C@H](O)[C@H](C)C[C@H](CC=O)[C@H](O[C@@H]2O[C@H](C)[C@@H](O[C@H]3C[C@@](C)(O)[C@@H](OC(=O)CC)[C@H](C)O3)[C@H](N(C)C)[C@H]2O)[C@H]1OC [Midecamycin] | > 20 µM |
| Cc1ccc(Br)cc1 [4-Bromotoluene] | > 90 µM |
| NNc1ccc(C(=O)O)cc1 [4-Hydrazinobenzoic acid] | > 90 µM |
| C[N+]1(C)[C@@H]2CC(OC(=O)[C@H](CO)c3ccccc3)C[C@H]1[C@@H]1O[C@@H]12 (stereo partly shown) [Scopolamine methylbromide] | > 50 µM |
| N[C@@H]1CCCC[C@H]1N [1,2-Cyclohexanediamine] | > 90 µM |
| CN[C@@H]1[C@@H](O)[C@@H](O[C@@H]2[C@@H](O)[C@H](O[C@H]3O[C@H](CN)[C@@H](O)[C@H](O)[C@H]3O)[C@@H](N)C[C@H]2NC(=O)[C@@H](O)CN)OC[C@]1(C)O [Isepamicin sulfate] | > 50 µM |
| CO[C@@]1(NC(=O)Cc2cccs2)C(=O)N2C(C(=O)O)=C(COC(N)=O)CS[C@@H]21 [Cefoxitin] | > 50 µM |
| Oc1ccc(Cc2ccc(O)cc2)cc1 [Bis(4-hydroxyphenyl)methane] | > 90 µM |
| OCCN1CCN(CCCN2c3ccccc3Sc3ccc(Cl)cc32)CC1 [Perphenazine] | 4.46 µM |
| Nc1cc(S(=O)(=O)O)cc2cc(S(=O)(=O)O)cc(O)c12 [Monosodium 8-amino-1-naphthol-3,6-disulfonate] | > 90 µM |
| CN(C)c1ccc(Cc2ccc(N(C)C)cc2)cc1 [4,4'-Methylenebis(N,N-dimethylaniline)] | > 90 µM |
| CCCC1COC(Cn2cncn2)(c2ccc(Cl)cc2Cl)O1 (stereo not shown) [Propiconazole] | 61 µM |
| C#CCN[C@@H]1CCc2ccccc21 [Rasagiline mesylate] | > 50 µM |
| CCCCC(CC)COS(=O)(=O)O (stereo not shown) [Sodium ethasulfate] | > 90 µM |
| O=C(O)c1cc(-c2ccc(F)cc2F)ccc1O [Diflunisal] | > 20 µM |
| COc1ccc(COC=O)cc1 [4-Methoxybenzyl formate] | > 90 µM |
| CCOC(=O)c1ccccc1O [Ethyl salicylate] | > 50 µM |

| SMILES | CC50 at 24 h |
| --- | --- |
| CC1(C2CCC3(C)OC3C2)CO1 (stereo not shown) [Limonene dioxide] | > 90 µM |
| C(/C=C/C=C/Nc1ccccc1)=Nc1ccccc1 [N,N'-Penta-1,3-dien-1-yl-5-ylidenedianiline hydrochloride] | > 90 µM |
| CC(C)(OO)c1ccccc1 [Cumene hydroperoxide] | 79.6 µM |
| Nc1ccc2ccccc2c1S(=O)(=O)O [2-Amino-1-naphthalenesulfonic acid] | > 90 µM |
| CCc1oc2ccccc2c1C(=O)c1cc(Br)c(O)c(Br)c1 [Benzbromarone] | 39.4 µM |
| C=CCn1c(=O)n([C@@H]2O[C@H](CO)[C@@H](O)[C@H]2O)c2nc(N)[nH]c(=O)c21 [Loxoribine] | > 50 µM |
| O=C(O)C[C@H](NC(=O)OCc1ccccc1)C(=O)O [N-[(Benzyloxy)carbonyl]-L-aspartic acid] | > 90 µM |
| CCCN1CCC[C@@H]2Cc3nc(N)ncc3C[C@H]21 [Quinelorane] | > 50 µM |
| CCOC(=S)SSC(=S)OCC [Bis(ethylxanthogen)] | > 90 µM |
| OCCN(CCO)c1cccc(Cl)c1 [2,2'-(3-Chlorophenylimino)diethanol] | > 90 µM |
| CNC(C)C(O)c1ccc(O)cc1 (stereo not shown) [1-(4-Hydroxyphenyl)-2-methyl-2-methylaminoethanol hydrochloride] | > 50 µM |
| C/C(=C(\CCOC(=O)c1ccccc1)SS/C(CCOC(=O)c1ccccc1)=C(/C)N(C=O)Cc1cnc(C)nc1N)N(C=O)Cc1cnc(C)nc1N [Bisbentiamine] | 25.6 µM |
| COc1cc(/C=C/C(=O)N2CCN(CC(=O)N3CCCC3)CC2)cc(OC)c1OC [Cinepazide maleate] | > 50 µM |
| c1cnc2cc3c(cc2n1)[C@@H]1CNC[C@H]3C1 [Varenicline tartrate] | > 50 µM |
| O=C(O)c1ccc(C(=O)O)c(C(=O)O)c1 [1,2,4-Benzenetricarboxylic acid] | > 90 µM |
| CCN1C(=O)c2ccccc2C1Nc1ccc(OCCN2CCCCC2)cc1 (stereo not shown) [Etomidoline] | > 50 µM |
| CC1(C)O[C@@H]2[C@@H](CO[C@@]3(COS(N)(=O)=O)OC(C)(C)O[C@@H]23)O1 [Topiramate] | > 90 µM |
| CCn1cc(C(=O)O)c(=O)c2ccc(C)nc21 [Nalidixic acid] | > 90 µM |
| c1ccc2nccnc2c1 [Quinoxaline] | > 90 µM |
| Nc1c(Cl)c(Cl)nc(C(=O)O)c1Cl [Picloram] | > 100 µM |
| COc1ccc(Cl)cc1C(=O)NCCc1ccc(S(=O)(=O)NC(=O)NC2CCCCC2)cc1 [Glybenclamide] | > 90 µM |
| Fc1cccc(Cl)c1CCl [1-Chloro-2-(chloromethyl)-3-fluorobenzene] | > 90 µM |

| SMILES | CC50 at 24 h |
| --- | --- |
| COc1cnc(NS(=O)(=O)c2ccc(N)cc2)nc1 [Sulfameter] | > 20 µM |
| C[N+]1(C)[C@@H]2CC[C@H]1CC(OC(=O)c1c[nH]c3ccccc13)C2 (stereo partly shown) [Tropisetron methyliodide] | > 50 µM |
| O=C1CCCC(=O)O1 [Glutaric anhydride] | > 90 µM |
| NCc1ccccc1CC(=O)N[C@@H]1C(=O)N2C(C(=O)O)=C(CSc3nnnn3CC(=O)O)CS[C@H]12 [Ceforanide] | > 20 µM |
| CC(C)OC(=O)CCCCC(=O)OC(C)C [Diisopropyl adipate] | > 90 µM |
| CCN(CC)C(=O)[C@]1(c2ccccc2)C[C@@H]1CN (racemic) [Milnacipran hydrochloride] | > 50 µM |
| CCCCCCCC(=O)CC[C@@H]1[C@@H](C/C=C\CCCC(=O)OC(C)C)[C@@H](O)C[C@H]1O [Unoprostone isopropyl ester] | 18 µM |
| CCOCCC(=O)OCC [Ethyl 3-ethoxypropionate] | > 100 µM |
| Cc1cccc(C)c1NC(=O)C1CCCCN1C (stereo not shown) [Mepivicaine hydrochloride] | > 50 µM |
| CCCCNc1ccc(C(=O)OCCOCCOCCOCCOCCOCCOCCOCCOCCOC)cc1 [Benzonatate] | > 20 µM |
| C=CCC1([C@@H](C)CCC)C(=O)NC(=O)NC1=O [S-(-)-Secobarbital] | > 90 µM |
| Nc1cc(Cl)ccc1Cl [2,5-Dichloroaniline] | > 90 µM |
| O=C(O)COc1nn(Cc2ccccc2)c2ccccc12 [Bendazac sodium] | > 50 µM |
| CC(=O)c1ccc2c(c1)Cc1ccccc1-2 [2-Acetylfluorene] | > 90 µM |
| CCNCC(O)c1cccc(O)c1 (stereo not shown) [Etilefrine hydrochloride] | > 20 µM |
| CC(=Cc1ccccc1)[N+](=O)[O-] [(2-Nitro-1-propenyl)benzene] | 10.3 µM |
| CN1C[C@H](C(=O)N[C@]2(C)O[C@@]3(O)[C@@H]4CCCN4C(=O)[C@H](Cc4ccccc4)N3C2=O)C[C@@H]2c3cccc4[nH]cc(c34)C[C@H]21 [Dihydroergotamine] | 19.3 µM |
| NC(=O)CC[C@@H]1NC(=O)[C@H](Cc2ccccc2)NC(=O)[C@H](Cc2ccc(O)cc2)NC(=O)[C@@H](N)CSSC[C@@H](C(=O)N2CCC[C@H]2C(=O)N[C@@H](CCCN=C(N)N)C(=O)NCC(N)=O)NC(=O)[C@H](CC(N)=O)NC1=O [Argipressin acetate] | > 50 µM |
| CCN(CC)CC(=O)Nc1c(C)cc(C)cc1C [Trimecaine monohydrochloride] | > 50 µM |
| Clc1ccc(C(Cl)(Cl)Cl)c(Cl)c1 [2,4-Dichloro-1-(trichloromethyl)benzene] | > 90 µM |
| FCOC(C(F)(F)F)C(F)(F)F [Sevoflurane] | > 50 µM |
| CC(C)CCCC(C)CC=O (stereo not shown) [3,7-Dimethyloctanal] | > 90 µM |

Same assay, conditions: rat, gh3-tre-luc cells, AC50 (uM) modified / 1000, Tox21_110001=Tox21_111092; viability, 1 nM T3 present, 24 h

| SMILES | CC50 at 24 h |
| --- | --- |
| O=C(O)COc1ccccc1 [Phenoxyacetic acid] | > 50 µM |

Same assay, conditions: rat, gh3-tre-luc cells, AC50 (uM) modified / 1000, Tox21_110001=Tox21_112368; viability, 1 nM T3 present, 24 h

| SMILES | CC50 at 24 h |
| --- | --- |
| CCON=O [Ethyl nitrite] | > 50 µM |

Same assay, conditions: rat, gh3-tre-luc cells, AC50 (uM) modified / 1000, Tox21_110001=Tox21_200806; viability, 1 nM T3 present, 24 h

| SMILES | CC50 at 24 h |
| --- | --- |
| ClC(Cl)Br [Bromodichloromethane] | > 90 µM |

Same assay, conditions: rat, gh3-tre-luc cells, AC50 (uM) modified / 1000, Tox21_110001=Tox21_200928; viability, 1 nM T3 present, 24 h

| SMILES | CC50 at 24 h |
| --- | --- |
| OC[P+](CO)(CO)CO [Tetrakis(hydroxymethyl)phosphonium sulfate] | > 90 µM |

Same assay, conditions: rat, gh3-tre-luc cells, AC50 (uM) modified / 1000, Tox21_110001=Tox21_201462; viability, 1 nM T3 present, 24 h

| SMILES | CC50 at 24 h |
| --- | --- |
| O=[N+]([O-])c1ccc(O)c([N+](=O)[O-])c1 [2,4-Dinitrophenol] | > 90 µM |

Same assay, conditions: rat, gh3-tre-luc cells, AC50 (uM) modified / 1000, Tox21_110001=Tox21_201755; viability, 1 nM T3 present, 24 h

| SMILES | CC50 at 24 h |
| --- | --- |
| Cc1cccc(N=Nc2ccc(N(C)C)cc2)c1 [3'-Methyl-4-dimethylaminoazobenzene] | 72.8 µM |

Same assay, conditions: rat, gh3-tre-luc cells, AC50 (uM) modified / 1000, Tox21_110001=Tox21_201854; viability, 1 nM T3 present, 24 h

| SMILES | CC50 at 24 h |
| --- | --- |
| O=C(O)COc1ccccc1 [Phenoxyacetic acid] | > 90 µM |

Same assay, conditions: rat, gh3-tre-luc cells, AC50 (uM) modified / 1000, Tox21_110001=Tox21_300030; viability, 1 nM T3 present, 24 h

| SMILES | CC50 at 24 h |
| --- | --- |
| O=[N+]([O-])c1ccc(O)c([N+](=O)[O-])c1 [2,4-Dinitrophenol] | 56.2 µM |

Same assay, conditions: rat, gh3-tre-luc cells, AC50 (uM) modified / 1000, Tox21_110001=Tox21_301347; viability, 1 nM T3 present, 24 h

| SMILES | CC50 at 24 h |
| --- | --- |
| COP(=S)(OC)Oc1c(Cl)cc(C)cc1Cl [Tolclofos-methyl] | > 90 µM |

Same assay, conditions: rat, gh3-tre-luc cells, AC50 (uM) modified / 1000, Tox21_110001=Tox21_303022; viability, 1 nM T3 present, 24 h

| SMILES | CC50 at 24 h |
| --- | --- |
| Cc1cccc(N=Nc2ccc(N(C)C)cc2)c1 [3'-Methyl-4-dimethylaminoazobenzene] | > 90 µM |
